Source: article PMC7417771, “Thiol-ene Enabled Chemical Synthesis of Truncated S-Lipidated Teixobactin Analogs” (Frontiers in Chemistry, 2020)
≈ marks a conversion by molar mass, not a printed value. Where two headings read alike, the source gives them in different places. Positions of bridges follow the written chain, without caps; N, C: chain ends. Non-standard residues stand in square brackets, D forms with d. Residues, ends and D or L forms follow the SMILES beside them. *: point of attachment. Ethyl(2-palmitoyloxy) = CCCCCCCCCCCCCCCC(=O)OCC*; Ethyl(2-butanoyloxy) = CCCC(=O)OCC*; Ethyl(2-OBz) = O=C(OCC*)c1ccccc1; Lauroyl = CCCCCCCCCCCC(=O)*; X1 = CCCCCCCCCCCC(=O)OCC*; X3 = CCCCCCCC(=O)OCC*; X2 = CCCCCC(=O)OCC*; Mpa = O=C(O)CCS

Tests used:
[1] = tested on: Staphylococcus aureus ATCC 29213; type: cell-based
Description: (§1) Microwave irradiated reactions were performed in a CEM (Matthews, NC) Discover SP, Model 908010 reactor. Dibenzofulvene measurements for the Fmoc release assay was performed in a Shimadzu (Kyoto, Japan) UV-1280 spectrophotometer at 290 nm. Analytical RP-HPLC was used to analyse final compounds and performed on a Dionex (Sunnyvale, CA) UltiMate 3000 system using a Waters (Milford, MA) Xterra MS C18 (5 μm 4.6 × 150 mm) column, and Chromeleon software was used for data processing. Buffer A: 0.1% (v/v) TFA in H2O; buffer B: 0.1% (v/v) TFA in MeCN. LC-MS was performed on an Agilent (Santa Clara, CA) 1260 Infinity with UV absorbance at λ = 214 nm equipped with an Agilent 6120 Quadrupole LC-MS using an Agilent Zorbax 300SB-C3 column (3.5 μm, 3.0 × 150 mm) column with a linear gradient of 5 – 95% B (ca. 3% B/min) at r.t., with a flow rate of 0.3 mL/min. Data processing was carried out by Agilent OpenLAB software. Buffer A: 0.1% (v/v) formic acid in H2O; buffer B: 0.1% (v/v) formic acid in MeCN. Crude peptides were purified on Dionex UltiMate 3000 preparative HPLC using Agilent Zorbax 300SB-C18 column (5 μm, 9.4 × 250 mm) and Chromeleon software was used for data processing. Ultraviolet irradiation was carried out using Spectroline (Westbury, NY) hand-held lamp EA-160/FA, 6W integrally filtered tube at 50 Hz, 0.17 A and λ = 365 nm. Biological assays were carried out inside a Thermo Fisher (Waltham, MA) HERAsafe KSP 12 biological safety cabinet on 96-well plates obtained from MediRay (Auckland, New Zealand). Mueller Hinton (MH) broth and Staphylococcus aureus ATCC 29213 was obtained from Thermo Fisher. Media and bacteria were incubated in N-Biotek (Geyonggi, South Korea) NB205L shaker.
Staphylococcus aureus ATCC 29213 was grown in non-cation adjusted Mueller Hinton (MH) broth at 37 °C with shaking (200 rpm). […] Overnight cultures of bacteria were diluted in fresh MH before adding 50 µL of inoculum to each well of the MIC plate, to achieve a final volume of 100 µL with a uniform CFU/ml of ~5 x10^5 in each well. Plates were incubated at 37 °C with shaking for 24 h before determining the MIC.

[2] = tested on: S. epidermidis ATCC 14990; settings: cited from earlier work; for MIC (S. epidermidis): Figure 1, ref Yang H. et al. (2016), Girt et al. (2018), Zong et al. (2018)
Description: Figure 1 Structures of teixobactin 1 and teixobactin analogs; Arg^10-teixobactin 2, lipobactin 3, and Lys^10-farnesylbactin 4. Examples of most relevant MICs from the literature are shown above each structure. Yang H. et al. ([2016]), Girt et al. ([2018]), Zong et al. ([2018]) The End^10, Arg^10 and Lys^10 substitutions (red) and the lipid moieties of lipobactin 3 and farnesylbactin 4 (blue) are highlighted. […] Lipobactin 3 was prepared using Fmoc-SPPS as described by the Nowick group (Yang H. et al., [2016]) and purified to 95% (Yang H. et al., [2016]). […] Despite the distinct similarity to lipobactin 3, in which hydrophobic residues 1–5 of teixobactin are also replaced with ...

[3] = tested on: Gram-positive bacterial species; settings: range over species, ref Yang H. et al., 2016, cited from earlier work
Description: Despite this substitution, the L-Arg^10-teixobactin analog maintained excellent, albeit reduced potency, with MIC values ranging 1–4 μg/mL across a number of Gram-positive bacterial species (Yang H. et al., [2016]; Zong et al., [2018]). The rationale for this substitution being that the positive charge from the guanidinium group was the moiety responsible for eliciting antibacterial activity.

[4] = Analytical RP-HPLC retention time as measure of hydrophobicity; type: physicochemical; settings: for RP-HPLC column retention time tR: chromatographic, analytical RP-HPLC, Waters Xterra MS C18 5 μm 4.6 × 150 mm, buffer A 0.1% TFA in H2O, buffer B 0.1% TFA in MeCN, used as measure of hydrophobicity; for Δt, retention time difference to lipobactin 3: tR of the compound minus tR of 3, same RP-HPLC C18 system; for Hydrophobicity relative to lipobactin 3 as judged by RP-HPLC retention time: in words
Description: We evaluated the antibiotic activity of the analogs 8a–8f against S. aureus using lipobactin 3 as a reference compound. Lipobactin 3 was prepared using Fmoc-SPPS as described by the Nowick group (Yang H. et al., [2016]) and purified to 95% (Yang H. et al., [2016]). […] To examine the reasons for the lack of bioactivity, the hydrophobicity of the S-lipidated teixobactin analogs as a function of lipid tail length were examined by analyses of their RP-HPLC retention times and compared to that of lipobactin 3 (Table 1).
as §1

[5] = tested on: methicillin-resistant Staphylococcus aureus (MRSA); settings: cited from earlier work
Text: Nature has historically been the primary source of medicinally important antibiotics (Moloney, [2016]). By screening soil microorganisms, Ling et al. discovered the novel antimicrobial peptide (AMP) teixobactin (1, Figure 1), isolated from bacterium Eleftheria terrae (Ling et al., [2015]). […] Crucially, resistance in S. aureus was not induced by exposure to sub-lethal doses of teixobactin. The lack of resistance wa ... || Figure 1 Structures of teixobactin 1 and teixobactin analogs; Arg^10-teixobactin 2, lipobactin 3, and Lys^10-farnesylbactin 4. Examples of most relevant MICs from the literature are shown above each structure. Yang H. et al. ([2016]), Girt et al. ([2018]), Zong et al. ([2018]) The End^10, Arg^10 and Lys^10 substitutions (red) and the lipid moieties of lipobactin 3 and farnesylbactin 4 (blue) are highlighted.

[6] = Figure 1, ref Yang H. et al. (2016), Girt et al. (2018), Zong et al. (2018)

Compound	MIC, S. aureus ATCC 29213 ([1]; ATCC 29213, 24 h)	RP-HPLC column retention time tR [4]	Δt, retention time difference to lipobactin 3 [4]	Hydrophobicity relative to lipobactin 3 as judged by RP-HPLC retention time [4]	also measured
CCCCCCCCCCCC(=O)N[C@H](C(=O)N[C@@H](CO)C(=O)N[C@H]1C(=O)N[C@@H](C)C(=O)N[C@@H](CCCNC(=N)N)C(=O)N[C@@H]([C@@H](C)CC)C(=O)O[C@H]1C)[C@@H](C)CC [Compound 3, lipobactin, reference compound] (Lauroyl-IS[dT]ARI; ester 3-C)	8 µM (≈ 6.59 µg/mL)	20.38 min	0 min	–	MIC, S. aureus ATCC 29213, converted to mass concentration ([1]; ATCC 29213, 24 h): ca. 6.5 μg/mL; MIC (S. epidermidis) [2]: 4 µg/mL (≈ 4.85 µM); MIC against S. epidermidis ATCC 14990 ([2]; reported MIC, ref Yang H. et al., 2016): 4 µg/mL (≈ 4.85 µM); MIC across a range of Gram-positive bacterial species [3]: 4 to 8 µg/mL
CCCC(=O)OCCSCCC(=O)N[C@H](C(=O)N[C@@H](CO)C(=O)N[C@H]1C(=O)N[C@@H](C)C(=O)N[C@@H](CCCNC(=N)N)C(=O)N[C@@H]([C@@H](C)CC)C(=O)O[C@H]1C)[C@@H](C)CC [Compound 8a] ([Mpa](Ethyl(2-butanoyloxy))IS[dT]ARI; ester 4-C)	> 128 µM	14.98 min	-5.4 min	more hydrophilic than 3	–
CCCCCC(=O)OCCSCCC(=O)N[C@H](C(=O)N[C@@H](CO)C(=O)N[C@H]1C(=O)N[C@@H](C)C(=O)N[C@@H](CCCNC(=N)N)C(=O)N[C@@H]([C@@H](C)CC)C(=O)O[C@H]1C)[C@@H](C)CC [Compound 8b] ([Mpa](X2)IS[dT]ARI; ester 4-C)	> 128 µM	16.88 min	-3.5 min	more hydrophilic than 3	–
CCCCCCCC(=O)OCCSCCC(=O)N[C@H](C(=O)N[C@@H](CO)C(=O)N[C@H]1C(=O)N[C@@H](C)C(=O)N[C@@H](CCCNC(=N)N)C(=O)N[C@@H]([C@@H](C)CC)C(=O)O[C@H]1C)[C@@H](C)CC [Compound 8c] ([Mpa](X3)IS[dT]ARI; ester 4-C)	> 128 µM	18.89 min	-1.5 min	–	–
CCCCCCCCCCCC(=O)OCCSCCC(=O)N[C@H](C(=O)N[C@@H](CO)C(=O)N[C@H]1C(=O)N[C@@H](C)C(=O)N[C@@H](CCCNC(=N)N)C(=O)N[C@@H]([C@@H](C)CC)C(=O)O[C@H]1C)[C@@H](C)CC [Compound 8d] ([Mpa](X1)IS[dT]ARI; ester 4-C)	> 128 µM	23.21 min	+2.8 min	more hydrophobic than 3	–
CCCCCCCCCCCCCCCC(=O)OCCSCCC(=O)N[C@H](C(=O)N[C@@H](CO)C(=O)N[C@H]1C(=O)N[C@@H](C)C(=O)N[C@@H](CCCNC(=N)N)C(=O)N[C@@H]([C@@H](C)CC)C(=O)O[C@H]1C)[C@@H](C)CC [Compound 8e] ([Mpa](Ethyl(2-palmitoyloxy))IS[dT]ARI; ester 4-C)	> 128 µM	27.98 min	+7.6 min	more hydrophobic than 3	–
CC[C@H](C)[C@H](NC(=O)CCSCCOC(=O)c1ccccc1)C(=O)N[C@@H](CO)C(=O)N[C@H]1C(=O)N[C@@H](C)C(=O)N[C@@H](CCCNC(=N)N)C(=O)N[C@@H]([C@@H](C)CC)C(=O)O[C@H]1C [Compound 8f] ([Mpa](Ethyl(2-OBz))IS[dT]ARI; ester 4-C)	–	15.93 min	-4.5 min	–	MIC, S. aureus ATCC 29213 ([1]; non-cation adjusted Mueller Hinton broth, two-fold dilution 128 to 0.0625 µM, ~5 x10^5 CFU/ml, 37 °C with shaking, 24 h, lowest concentration at which growth did not occur): > 128 µM
L-Arg^10-teixobactin [Compound 2]	–	–	–	–	MIC (MRSA) [5, 6]: 2 µg/mL; MIC (S. epidermidis) [2]: 1 µg/mL; MIC values across a number of Gram-positive bacterial species ([3]; Zong et al., 2018): 1 to 4 µg/mL; MIC across a range of Gram-positive bacterial species [3]: 1 to 4 µg/mL
teixobactin [Compound 1]	–	–	–	–	MIC (MRSA) [5, 6]: 0.25 µg/mL; MIC (MRSA) ([5]; ref Ling et al., 2015): 0.25 µg/mL
